Data taken from US7781421B2, “Neuroactive 13, 24-cyclo-18, 21-dinorcholanes and structurally related pentacyclic steriods” (Washington University, priority 2003, dated 2010).
Where two headings read alike, the source gives them in different places.

Columns and labels:
[1] = target: T1, rat α1β2γ2 GABAA Receptor (Rattus norvegicus, UniProt P18508+P62813+P63138, INS375LLRMFSFK); experiment: Xenopus oocyte two-electrode voltage-clamp electrophysiology; type: cell-based; conditions: for Oocyte electrophysiology, ratio of currents in presence/absence of compound, 0.1 μM: 0.1 μM compound co-applied with 2 μM GABA; for Oocyte electrophysiology, ratio of currents in presence/absence of compound, 0.1 μM / Oocyte electrophysiology, ratio of currents in presence/absence of compound, 1 μM / Oocyte electrophysiology, ratio of currents in presence/absence of compound, 10 μM: −70 mV; for Oocyte electrophysiology, ratio of currents in presence/absence of compound, 1 μM: 1 μM compound co-applied with 2 μM GABA; for Oocyte electrophysiology, ratio of currents in presence/absence of compound, 10 μM: 10 μM compound co-applied with 2 μM GABA; for Gating (10 μM), ratio of compound only current/2 μM GABA current: direct current gated by 10 μM compound in the absence of GABA
T1 construct: from linearized pBluescript vectors containing receptor coding regions; expressed in transfected cells; host or cells: Xenopus laevis oocytes injected with in vitro transcribed capped mRNA
T1 sequence (P62813 28-455, stated change not applied): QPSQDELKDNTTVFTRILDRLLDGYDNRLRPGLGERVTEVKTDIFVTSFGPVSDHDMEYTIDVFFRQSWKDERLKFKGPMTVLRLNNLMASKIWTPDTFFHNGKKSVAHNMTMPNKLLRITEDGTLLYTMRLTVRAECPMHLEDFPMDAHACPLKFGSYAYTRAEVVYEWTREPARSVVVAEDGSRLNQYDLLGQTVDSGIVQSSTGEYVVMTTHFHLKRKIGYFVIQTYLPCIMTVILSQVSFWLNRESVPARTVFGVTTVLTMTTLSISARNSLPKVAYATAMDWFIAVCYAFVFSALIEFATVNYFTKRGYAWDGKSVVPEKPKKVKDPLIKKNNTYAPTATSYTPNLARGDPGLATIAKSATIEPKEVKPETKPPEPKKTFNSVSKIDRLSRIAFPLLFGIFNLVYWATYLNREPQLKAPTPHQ
T1 sequence (P63138 26-474, stated change not applied): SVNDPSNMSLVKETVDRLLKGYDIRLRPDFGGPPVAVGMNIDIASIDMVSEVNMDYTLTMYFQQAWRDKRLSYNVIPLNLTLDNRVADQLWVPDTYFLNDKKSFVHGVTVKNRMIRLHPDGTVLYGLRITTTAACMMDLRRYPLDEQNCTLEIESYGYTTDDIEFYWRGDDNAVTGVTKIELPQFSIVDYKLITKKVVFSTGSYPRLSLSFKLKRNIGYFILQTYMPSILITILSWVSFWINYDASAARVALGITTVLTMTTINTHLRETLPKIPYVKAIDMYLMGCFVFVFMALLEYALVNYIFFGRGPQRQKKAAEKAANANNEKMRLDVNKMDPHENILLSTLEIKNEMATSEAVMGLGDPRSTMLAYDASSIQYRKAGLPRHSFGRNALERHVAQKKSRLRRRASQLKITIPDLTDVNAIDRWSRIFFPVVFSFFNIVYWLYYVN
T1 sequence (P18508 with tags, fused parts or gaps INS375LLRMFSFK): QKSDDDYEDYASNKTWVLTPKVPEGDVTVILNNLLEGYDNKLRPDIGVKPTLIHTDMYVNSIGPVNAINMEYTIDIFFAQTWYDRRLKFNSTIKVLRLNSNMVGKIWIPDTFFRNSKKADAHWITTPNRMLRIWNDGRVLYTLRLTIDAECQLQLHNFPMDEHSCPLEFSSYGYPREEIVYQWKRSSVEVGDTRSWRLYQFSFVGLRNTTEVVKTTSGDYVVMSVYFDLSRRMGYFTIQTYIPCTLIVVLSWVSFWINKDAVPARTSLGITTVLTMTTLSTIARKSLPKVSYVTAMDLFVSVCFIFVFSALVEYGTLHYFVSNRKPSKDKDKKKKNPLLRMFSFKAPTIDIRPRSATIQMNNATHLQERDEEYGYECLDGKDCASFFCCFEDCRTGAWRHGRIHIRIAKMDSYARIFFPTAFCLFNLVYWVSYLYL
Experimental: Stage V-VI oocytes were harvested from sexually mature female Xenopus laevis (Xenopus One, Northland, Mich.) under 0.1% tricaine (3-aminobenzoic acid ethyl ester) anesthesia. Oocytes were defolliculated by shaking for 20 min at 37° C. in collagenase (2 mg/ml) dissolved in calcium-free solution containing (in mM): 96 NaCl, 2 KCl, 1 MgCl2, and 5 HEPES at pH 7.4. Capped mRNA, encoding rat GABAA receptor α1, β2 and γ2L subunits was transcribed in vitro using the mMESSAGE mMachine Kit (Ambion, Austin, Tex.) from linearized pBluescript vectors containing receptor coding regions. Subunit transcripts were injected in equal parts (20-40 ng total RNA) 8-24 hours following defolliculation. Oocytes were incubated up to 5 days at 18° C. in ND96 medium containing (in mM): 96 NaCl, 1 KCl, 1 MgCl2, 2 CaCl2 and 5 HEPES at pH 7.4, supplemented with pyruvate (5 mM), penicillin (100 U/ml), streptomycin (100 μg/ml) and gentamycin (50 μg/ml). The cDNAs for the rat GABAA-receptor subunits were originally provided by A. Tobin, University of California, Los Angels (α1), P. Malherbe, Hoffman-La Roche, Switzerland (β2), C. Fraser, National Institute on Alcohol Abuse and Alcoholism (γ2L).
Two-electrode voltage-clamp experiments were performed with a Warner OC725 amplifier 2-5 days following RNA injection. The extracellular recording solution was ND96 medium with no supplements. Intracellular recording pipettes were filled with 3 M KCl and had open tip resistances of ˜1 MΩ. Drugs were applied from a common tip via a gravity-driven multibarrel drug-delivery system. Steroids were simultaneously co-applied with GABA. Cells were clamped at −70 mV for all experiments, and peak current during 20 s drug applications was measured. Data acquisition and analysis were performed with pCLAMP software (Axon Instruments, California). Statistical differences were determined using a two-tailed Student's t-test.
The GABA concentration used for the control response was 2 μM. Each compound was evaluated on at least four different oocytes at the concentrations indicated, and the results reported are the ratio of the currents measured in the presence/absence of added compound. (G) represents direct current gated by 10 μM compound in the absence of GABA, and this current is reported as the ratio of compound only current/2 μM GABA current. Error limits are calculated as standard error of the means.

Xenopus laevis tadpoles = experiment: Tadpole loss of righting (LRR) and swimming (LSR) reflexes; type: in vivo; conditions: 3 h equilibration at room temperature; for EC50: read-out: LSR EC50 (loss of swimming response)
Experimental: Tadpole LRR was measured as described previously. (See, Wittmer, L. L., et al., Enantioselectivity of steroid-induced γ-aminobutyric acidA receptor modulation and anesthesia, Mol. Phar., 1996, 50:1581-1586). Briefly, groups of 10 early prelimb-bud stage Xenopus laevis tadpoles (Nasco, Fort Atkinson, Wis.) were placed in 100 mL of oxygenated Ringer's stock solution containing various concentrations of compound. Compounds were added from a 10 mM DMSO stock (final concentration of DMSO in test solutions ≦0.1%). After equilibrating at room temperature for 3 h, tadpoles were evaluated using the LRR and LSR behavioral endpoints. LRR was defined as failure of the tadpole to right itself within 5 sec after being flipped by a smooth glass rod. LSR was defined as failure of the tadpole to swim when touched by a smooth glass rod. In general, the tadpoles regained their righting and swimming reflexes when placed in fresh oxygenated Ringer's solution. Control beakers containing up to 0.6% DMSO produced no LRR or LSR in tadpoles.
Tadpole LRR and LSR concentration-response curves were fit using Sigma Plot version 3.0 to the Hill equation f=Rmax/{1+([conc]/EC50)^n}
where Rmax is the maximum effect, [conc] is the steroid concentration, EC50 is the half-maximal effective concentration, and n is the Hill coefficient.

[2] = target: GABAA receptor ([35S]-TBPS binding site, rat brain cortical membranes); experiment: Displacement of [35S]-TBPS binding, rat brain cortical membranes; conditions: 5 μM GABA, 2 nM [35S]-TBPS; ± standard error of the means
Experimental: Rat brain cortical membranes were prepared with minor modifications of the method previously reported. (Hawkinson, J. E., et al., Correlation of Neuroactive Steroid Modulation of [^35S]t-Butylbicyclophosophorothionate and [^3H]Flunitrazepam Binding and γ-Aminobutyric AcidA Receptor Function, Mol. Pharmacol., 1994, 46, 977-985). Briefly, frozen rat cerebral cortices (Pel-freez, Rogers, Ak.) were thawed and homogenized in 10 volumes of ice-cold 0.32 M sucrose using a glass/Teflon pestle. The homogenate was centrifuged at 1500×g for 10 min at 4° C. The resultant supernatant was centrifuged at 10,000×g for 30 min at 4° C. The pellet (P2) from this centrifugation was resuspended in 200 mM NaCl, 50 mM potassium phosphate buffer, pH 7.4, and centrifuged at 10,000×g for 20 min at 4° C. This washing procedure was done a total of three times, and then pellets were resuspended in buffer (˜4 mL/brain) using a glass/Teflon pestle. The membrane suspension was aliquoted, frozen in liquid nitrogen, and stored at −80° C. prior to use.
[^35S]-TBPS Binding assays were done according to the procedure described previously (Hawkinson, J. E., et al., Correlation of Neuroactive Steroid Modulation of [^35S]t-Butylbicyclophosophorothionate and [^3H]Flunitrazepam Binding and γ-Aminobutyric AcidA Receptor Function, Mol. Pharmacol., 1994, 46, 977-985) with modifications. Briefly, aliquots of membrane solution (0.5 mg/mL final protein concentration in assay) were incubated with 5 μM GABA, 2 nM [^35S]-TBPS (45-120 Ci/mmol), and 5 μL aliquots of steroid in DMSO solution (final assay concentrations ranged from 1 nM to 10 μM), and brought to a final volume of 1 mL with 200 mM NaCl, 50 mM potassium phosphate buffer, pH 7.4. […] Assay tubes were incubated for 2 hr at room temperature. A Brandel (Gaithersburg, Md.) cell harvester was used for filtration of the assay tubes through Whatman/GF/C glass filter paper. Filter paper was rinsed with 4 mL of ice-cold buffer three times. Radioactivity bound to the filters was read by liquid scintillation counter and data was fit using Sigma Plot version 3.0 to the Hill equation i. f=Rmax/{1+([conc]/IC50)^n}
Where Rmax is the maximal effect, [conc] is steroid concentration, IC50 is the half-maximal inhibitor concentration and n is the Hill coefficient. Each data point was determined in triplicate and 2-3 full concentration-response curves were generated for each steroid.

Row | SMILES | melting point [°C] | Oocyte electrophysiology, ratio of currents in presence/absence of compound, 0.1 μM [1] | Oocyte electrophysiology, ratio of currents in presence/absence of compound, 1 μM [1] | Oocyte electrophysiology, ratio of currents in presence/absence of compound, 10 μM [1] | Gating (10 μM), ratio of compound only current/2 μM GABA current [1] | LRR ED50 (loss of righting response) (Xenopus laevis tadpoles) [nM] | EC50 (Xenopus laevis tadpoles) [nM] | IC50 [2] [nM] | EC50 (Xenopus laevis tadpoles; Xenopus laevis, 3 h) [nM] | Reversibility of steroid effect on GABA current (FIG. 1A) ([1]; 500 nM compound, 2 μM GABA, GABA recovery panel) | LSR EC50 (loss of swimming response) (Xenopus laevis tadpoles)
1 | CC12CCC(O)CC1CCC1C2CCC23CC(=O)C=CC2CCC13 (stereo not drawn) [Compound 21c, (3α,5α)-3-Hydroxy-13,24-cyclo-18,21-dinorchol-20(22)-en-23-one] | 209 to 210 | 1.59 ± 0.14 | 5.53 ± 0.66 | 16.58 ± 2.45 | 0.35 ± 0.12 | 1280 ± 380 | 10000 | 243 ± 11 |  |  | 
2 | CC12CCC(O)CC1CCC1C2CCC23CC(=O)C=CC2CCC13 (stereo not drawn) [Compound 22c, (3α,5β)-3-Hydroxy-13,24-cyclo-18,21-dinorchol-20(22)-en-23-one] | 209 to 211 | 1.07 ± 0.10 | 1.83 ± 0.25 | 4.50 ± 0.46 | −0.02 ± 0.01 | 1050 ± 0 | 2720 ± 10 | 268 ± 43 |  |  | 
3 | CC12CCC(O)CC1CCC1C2CCC23C=CC(=O)CC2CCC13 (stereo not drawn) [Compound 30a, (3α,5α)-3-Hydroxy-13,24-Cyclo-18,21-dinorchol-23-en-22-one] | 168 to 170 | 1.12 ± 0.08 | 1.54 ± 0.30 | 5.07 ± 0.98 | −0.04 ± 0.05 | 730 ± 160 |  | 1260 ± 100 | 5480 ± 90 |  | 
4 | CC12CCC(O)CC1CCC1C2CCC23C=CC(=O)CC2CCC13 (stereo not drawn) [Compound 30b, (3α,5β)-3-Hydroxy-13,24-cyclo-18,21-dinorchol-23-en-22-one] | 196.5 to 199 | 1.87 ± 0.24 | 1.80 ± 0.25 | 4.44 ± 0.87 | 0.26 ± 0.31 | 560 ± 900 | 5480 | 4750 ± 970 |  |  | 
5 | CC12CCC(O)CC1CCC1C2CCC23C(=O)C=CCC2CCC13 (stereo not drawn) [Compound 35a, (3α,5α)-3-Hydroxy-13,24-cyclo-18,21-dinorchol-22-en-24-one] | 242 to 243 | 1.98 ± 0.25 | 8.33 ± 0.75 | 9.45 ± 4.19 | 0.07 ± 0.10 | 1020 ± 0 | 2660 | 197 ± 23 |  | readily reversible | 
6 | CC12CCC(O)CC1CCC1C2CCC23C(=O)C=CCC2CCC13 (stereo not drawn) [Compound 35b, (3α,5β)-3-Hydroxy-13,24-cyclo-18,21-dinorchol-22-en-24-one] | 222 to 223 | 1.36 ± 0.60 | 3.15 ± 1.19 | 21.38 ± 11.08 | 0.20 ± 0.19 | 400 ± 130 | 1000 | 105 ± 12 |  |  | 
7 | C[C@]12CC[C@@H](O)C[C@@H]1CCC1C3CC[C@@H]4[C@H](C#N)CCC[C@]34CCC12 (stereo partly drawn) [Compound 39, (3α,5α,20R)-3-Hydroxy-13,24-cyclo-18,21-dinorcholane-20-carbonitrile] | 213 to 214 | 1.04 ± 0.03 | 1.12 ± 0.08 | 1.70 ± 0.10 | 0.04 ± 0.04 | 490 ± 90 |  | 1670 ± 138 |  |  | None @ 10
8 | C[C@]12CC[C@@H](O)C[C@@H]1CCC1C3CC[C@@H]4[C@@H](C#N)CCC[C@]34CCC12 (stereo partly drawn) [Compound 40, (3α,5α,20S)-3-Hydroxy-13,24-cyclo-18,21-dinorcholane-20-carbonitrile] | 250 to 251 | 1.06 ± 0.03 | 1.23 ± 0.02 | 1.27 ± 0.02 | −0.01 ± 0.01 | >10000 |  | 173 ± 12 |  |  | None @ 10
9 | C[C@]12CC[C@@H](O)C[C@@H]1CCC1C3CC[C@@H]4C[C@@H](C#N)CC[C@]34CCC12 (stereo partly drawn) [Compound 44, (3α,5α,22S)-3-Hydroxy-13,24-cyclo-18,21-dinorcholane-22-carbonitrile] | 199 to 200 | 1.19 ± 0.02 | 1.14 ± 0.13 | 4.01 ± 0.42 | 0.03 ± 0.01 | 300 ± 30 |  | 585 ± 30 | 6280 ± 1080 |  | 
